# Patent US9619875B2, “Contrast reagent leakage correction in dynamic susceptibility contrast magnetic resonance imaging” (OREGON HEALTH & SCIENCE UNIVERSITY, priority 2014, dated 2017)
# Assay: DSC MRI with gadoteridol (day 1) and ferumoxytol (day 2) in subjects with Glioblastoma multiforme
# Assay type: in vivo
# Excerpt: In this example, 17 subjects with Glioblastoma multiforme (GBM) were prospectively studied on institutional review board approved protocols. Informed written consent was obtained from each subject. Subjects underwent MRI sessions consisting of two consecutive days of MRI scans. On the first day, pre- and post-contrast T1-weighted images and DSC-MRI were acquired using gadoteridol gadolinium (III) chelate (ProHance, Bracco Diagnostic Inc., Princeton, N.J.). On the following day, the same MRI sequences were acquired using ferumoxytol (provided by AMAG Pharmaceuticals, Inc., Cambridge, Mass.). […]
# All Gd and Fe DSC data were first motion corrected within each dynamic series and then between the series using FMRIB's Linear Image Registration Tool (FLIRT) within FM RIB Software Library (FSL). […] The Gd CR extravasating rate constant was calculated either with the Equation 1 fitting approach to obtain K2, or the KL constant defined as the slope of the linear portion of the graphed points using Equation 2. In this example, linear regression was performed starting at 40 seconds post CR injection to ensure minimal influence of CR transient period (period (i) shown in FIGS. 2E and 2F described below) on KL quantification. […]
structure (smiles),measurement,setting,value
"CC(O)CN1CCN(CC(=O)[O-])CCN(CC(=O)[O-])CCN(CC(=O)[O-])CC1.[Gd+3] (centres unmarked) [gadoteridol, gadoteridol gadolinium (III) chelate]",complications during the MR examinations,"17 GBM subjects, gadoteridol 0.1 mmol/kg i.v., ferumoxytol 1 mg/kg, 2 mg/kg or 75 mg i.v.",No subject had any complications
same,"pixels with appreciable linearity departure (period iii, intravasation)","Equation 2 linearization, data up to 70 s post CR injection",< 0.1%
